Values of other authors in patent US4271152A, “Psycho-pharmacological peptides” (Akzo N.V., priority 1979, dated 1981).
Entries after “also recorded” stand apart in the source; their conditions may differ.

Assays:
[1] = system: opiate receptor
[2] = system: avoidance behaviour of rats; conditions: pole-jumping test; for extinction of the (pole-jumping) avoidance behaviour: background knowledge / earlier Dutch application
[3] = can be antagonized by naloxon

| Substance | affinity to the opiate receptor [1] | extinction of the (pole-jumping) avoidance behaviour [2] | counteraction by morphine antagonists (naloxon, naltrexon) of the inhibition of extinction [2] | analgetic effect [3] |
| --- | --- | --- | --- | --- |
| Leu-enkephaline | affinity to the opiate receptor | – | – | – |
| D-Ala^2 -Met-enkephalin | affinity to the opiate receptor | – | – | – |
| γ-endorphin | – | accelerate the extinction of the avoidance behaviour | – | – |
| α-endorphin | affinity to the opiate receptor | inhibit the extinction of the avoidance behaviour; also recorded: delayed the extinction of the avoidance behaviour | – | – |
| Met-enkephalin | affinity to the opiate receptor | inhibit the extinction of the avoidance behaviour | – | – |
| β-endorphin (YGGFMTSEKSQTPLVTLFKNAIIKNAYKKGE; Beta-endorphin; UniProt P01189 237-267, looked up) | – | inhibits the extinction | cannot be counteracted by known morphine antagonists | analgetic effect |
